Among the data in patent US20260078120A1, “SUBSTITUTED PYRIDOPYRIMIDINONES” (MIRATI THERAPEUTICS, INC., priority 2022, published 2026) are IC50 values, retold here.

Some results are limits rather than exact numbers.

One may read the IC50 as the concentration needed to halve the response being measured.

Assay [1] concerns SKBR3 (PI3Kα wild type) cells. The assay is described as follows: CellTiter-Glo 2.0 luminescent cell viability assay, 72 hours, SKBR3 cells. The format is cell-based. The conditions noted are these: Homo sapiens, SK-BR-3, 72 h, SKBR3 (PI3Kα wild type) cells, CellTiter-Glo, approximately 72 hours; read-out: SKBR3 (WT) Viability IC50. In a few lines: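 Viability measured via CTG luminescence following roughly 72 hours of compound exposure at 37° C. Dosing used a 10 um starting concentration diluted 1:4 over 10 points; percent-of-vehicle data fitted with a variable-slope four-parameter model for IC50.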
For orientation: In ATP-based viability assays light output follows the ATP content of the culture.

For assay [2], the system named is T47D (PI3Kα H1047R mutant) cells. The experiment in a line: CellTiter-Glo 2.0 luminescent cell viability assay, 72 hours, T47D cells. The conditions noted are these: Homo sapiens, T47D, 72 h, T47D (PI3Kα H1047R mutant) cells, CellTiter-Glo, approximately 72 hours; read-out: T47D (H1047R mutant) Viability IC50. The assay is classed as cell-based. Summed up: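 Cells seeded at 1000 per well overnight were dosed with a 10-concentration, 1:4 series starting at 10 µM and incubated ~72 h at 37° C. Viability was read by CellTiter-Glo 2.0 luminescence after 30 min at room temperature. IC50 came from four-parameter fits of percent vehicle control.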

For the compound `Cc1cc([C@@H](C)Nc2ccc(Cl)nc2C(=O)O)c2nc(N3CCN(c4ccc(C#N)cc4)C[C@H]3C)c(C#N)c(=O)n2c1` [Example 11-128, 6-chloro-3-(((R)-1-(3-cyano-2-((R)-4-(4-cyanophenyl)-2-methylpiperazin-1-yl)-7-methyl-4-oxo-4H-pyrido[1,2-a]pyrimidin-9-yl)ethyl)amino)picolinic acid], the IC50 in assay [1] is greater than 10000 nM; in assay [2], 275 nM.
The like results for `C[C@@H](Nc1ccccc1C(=O)O)c1cc(Cl)cn2c(=O)c(C#N)c(N3CCC(F)(F)CC3)nc12` [Example 10-26, (R)-2-((1-(7-chloro-3-cyano-2-(4,4-difluoropiperidin-1-yl)-4-oxo-4H-pyrido[1,2-a]pyrimidin-9-yl)ethyl)amino)benzoic acid] were, in that order, greater than 10000 nM and 50.5 nM.
The corresponding values for `Cc1cc(C(C)Nc2ccncc2C(=O)O)c2nc(N3Cc4ccccc4C3)c(C)c(=O)n2c1` (centres unmarked) [Example 11-350, 4-((1-(2-(isoindolin-2-yl)-3,7-dimethyl-4-oxo-4H-pyrido[1,2-a]pyrimidin-9-yl)ethyl)amino)nicotinic acid] are greater than 10000 nM and greater than 10000 nM.
The corresponding values for `CC(=O)N1CCC(c2cc(=O)n3cc(C)cc(C(C)Nc4ccccc4C(=O)O)c3n2)CC1` (centres unmarked) [Example 11-381, 2-((1-(2-(1-acetylpiperidin-4-yl)-7-methyl-4-oxo-4H-pyrido[1,2-a]pyrimidin-9-yl)ethyl)amino)benzoic acid] are greater than 10000 nM and 5460 nM.
On to `Cc1cc([C@@H](C)Nc2ccc(Cl)cc2C(=O)O)c2nc(N3CCCCC3)c(C)c(=O)n2c1` [Example 11-281, (R)-5-chloro-2-((1-(3,7-dimethyl-4-oxo-2-(piperidin-1-yl)-4H-pyrido[1,2-a]pyrimidin-9-yl)ethyl)amino)benzoic acid], for which the results for the IC50 in assay [1] and in assay [2] were greater than 10000 nM and 428 nM, respectively.
The corresponding values for `Cc1cc(C(C)Nc2ccccc2C(=O)O)c2nc(N3CCC3)cc(=O)n2c1` (centres unmarked) [Example 11-407, 2-((1-(2-(azetidin-1-yl)-7-methyl-4-oxo-4H-pyrido[1,2-a]pyrimidin-9-yl)ethyl)amino)benzoic acid] are greater than 10000 nM and greater than 10000 nM.
The like results for `Cc1cc([C@@H](C)Nc2ccccc2C(=O)O)c2nc(N3CC4(CO)CCCC3C4)c(C)c(=O)n2c1` (stereo partly drawn) [Example 10-144, 2-(((1R)-1-(2-(1-(hydroxymethyl)-6-azabicyclo[3.2.1]octan-6-yl)-3,7-dimethyl-4-oxo-4H-pyrido[1,2-a]pyrimidin-9-yl)ethyl)amino)benzoic acid] were, in that order, greater than 10000 nM and 91.3 nM.
Take `Cc1cc([C@@H](C)Nc2ccccc2C(=O)O)c2nc(NC[C@@H]3CCOC3)c(C#N)c(=O)n2c1` [Example 11-192, 2-(((R)-1-(3-cyano-7-methyl-4-oxo-2-((((S)-tetrahydrofuran-3-yl)methyl)amino)-4H-pyrido[1,2-a]pyrimidin-9-yl)ethyl)amino)benzoic acid]: the 50% inhibitory concentration (IC50) was greater than 10000 nM in assay [1] and 2440 nM in assay [2].
With `Cc1cc([C@@H](C)Nc2ccccc2C(=O)O)c2nc(N3CCC4(CCO4)CC3)c(C#N)c(=O)n2c1` [Example 11-55, (R)-2-((1-(3-cyano-7-methyl-4-oxo-2-(1-oxa-7-azaspiro[3.5]nonan-7-yl)-4H-pyrido[1,2-a]pyrimidin-9-yl)ethyl)amino)benzoic acid], the IC50 was greater than 10000 nM in assay [1] and 219 nM in assay [2].
The corresponding values for `Cc1cc(C(C)Nc2ccccc2C(=O)O)c2nc(-c3cccnc3)cc(=O)n2c1` (centres unmarked) [Example 11-401, 2-((1-(7-methyl-4-oxo-2-(pyridin-3-yl)-4H-pyrido[1,2-a]pyrimidin-9-yl)ethyl)amino)benzoic acid] are greater than 10000 nM and 3270 nM.
In the case of `Cc1cc([C@@H](C)Nc2ccccc2C(=O)O)c2nc(N3CCN(C4CC4)CC3)c(C#N)c(=O)n2c1` [Example 11-150, (R)-2-((1-(3-cyano-2-(4-cyclopropylpiperazin-1-yl)-7-methyl-4-oxo-4H-pyrido[1,2-a]pyrimidin-9-yl)ethyl)amino)benzoic acid], the concentration for half-maximal inhibition (IC50) in assay [1] was greater than 10000 nM; in assay [2], 342 nM.
The corresponding values for `Cc1cc(C(C)Nc2c(F)cccc2C(=O)O)c2nc(N3Cc4ccccc4C3)c(C)c(=O)n2c1` (centres unmarked) [Example 11-363, 3-fluoro-2-((1-(2-(isoindolin-2-yl)-3,7-dimethyl-4-oxo-4H-pyrido[1,2-a]pyrimidin-9-yl)ethyl)amino)benzoic acid] are greater than 10000 nM and 2890 nM.
Regarding `Cc1cc([C@@H](C)Nc2ccccc2C(=O)O)c2nc(N3CCC(N4CCCCC4=O)CC3)c(C)c(=O)n2c1` [Example 10-3, (R)-2-((1-(3,7-dimethyl-4-oxo-2-(2-oxo-[1,4′-bipiperidin]-1′-yl)-4H-pyrido[1,2-a]pyrimidin-9-yl)ethyl)amino)benzoic acid], the IC50 was greater than 10000 nM in assay [1] and 8.12 nM in assay [2].
The like results for `Cc1cc([C@@H](C)Nc2ccccc2C(=O)O)c2nc(N3CCN(C4CCOCC4)CC3)c(C)c(=O)n2c1` [Example 11-187, (R)-2-((1-(3,7-dimethyl-4-oxo-2-(4-(tetrahydro-2H-pyran-4-yl)piperazin-1-yl)-4H-pyrido[1,2-a]pyrimidin-9-yl)ethyl)amino)benzoic acid] were, in that order, greater than 10000 nM and 406 nM.
The corresponding values for `Cc1cc([C@@H](C)Nc2ccccc2C(=O)O)c2nc(N3CCN(c4cccc(C#N)c4)C[C@H]3C)c(C#N)c(=O)n2c1` [Example 11-84, 2-(((R)-1-(3-cyano-2-((R)-4-(3-cyanophenyl)-2-methylpiperazin-1-yl)-7-methyl-4-oxo-4H-pyrido[1,2-a]pyrimidin-9-yl)ethyl)amino)benzoic acid] are 952 nM and 139 nM.
The like results for `Cc1cc([C@@H](C)Nc2ccc(Cl)nc2C(=O)O)c2nc(N3Cc4ccncc4C3)c(C#N)c(=O)n2c1` [Example 11-147, (R)-6-chloro-3-((1-(3-cyano-2-(1,3-dihydro-2H-pyrrolo[3,4-c]pyridin-2-yl)-7-methyl-4-oxo-4H-pyrido[1,2-a]pyrimidin-9-yl)ethyl)amino)picolinic acid] were, in that order, greater than 10000 nM and 1040 nM.
Take `Cc1cc([C@@H](C)Nc2cccn(C)c2=O)c2nc(N3CCCCC3)c(C)c(=O)n2c1` [Example 11-278, (R)-3,7-dimethyl-9-(1-((1-methyl-2-oxo-1,2-dihydropyridin-3-yl)amino)ethyl)-2-(piperidin-1-yl)-4H-pyrido[1,2-a]pyrimidin-4-one]: the IC50 is greater than 10000 nM in assay [1] and 8350 nM in assay [2].
The corresponding values for `Cc1cc([C@@H](C)Nc2ccccc2C(=O)O)c2nc(N(C)CC3CC3)c(C)c(=O)n2c1` [Example 11-203, (R)-2-((1-(2-((cyclopropylmethyl)(methyl)amino)-3,7-dimethyl-4-oxo-4H-pyrido[1,2-a]pyrimidin-9-yl)ethyl)amino)benzoic acid] are greater than 10000 nM and 356 nM.
Take `CC(Nc1ccccc1C(=O)O)c1cc(C(F)F)cn2c(=O)c(C#N)c(N3CCC(F)(F)CC3)nc12` (centres unmarked) [Example 11-170, 2-((1-(3-cyano-7-(difluoromethyl)-2-(4,4-difluoropiperidin-1-yl)-4-oxo-4H-pyrido[1,2-a]pyrimidin-9-yl)ethyl)amino)benzoic acid]: the IC50 was greater than 10000 nM in assay [1] and 166 nM in assay [2].
The like results for `Cc1cc(C(C)Nc2ccc(Cl)nc2C(=O)O)c2nc(N3CCCCC3)c(C)c(=O)n2c1` (centres unmarked) [Example 11-359, 6-chloro-3-((1-(3,7-dimethyl-4-oxo-2-(piperidin-1-yl)-4H-pyrido[1,2-a]pyrimidin-9-yl)ethyl)amino)picolinic acid] were, in that order, 8110 nM and 362 nM.
The like results for `Cc1cc(C(C)Nc2ccccc2C(=O)O)c2nc(-c3ccccc3)c(C)c(=O)n2c1` (centres unmarked) [Example 11-403, 2-((1-(3,7-dimethyl-4-oxo-2-phenyl-4H-pyrido[1,2-a]pyrimidin-9-yl)ethyl)amino)benzoic acid] were, in that order, greater than 10000 nM and 1060 nM.
The corresponding values for `CCc1cc([C@@H](C)Nc2ccccc2C(=O)O)c2nc(N3CCC(F)(F)CC3)c(C#N)c(=O)n2c1` [Example 10-46, (R)-2-((1-(3-cyano-2-(4,4-difluoropiperidin-1-yl)-7-ethyl-4-oxo-4H-pyrido[1,2-a]pyrimidin-9-yl)ethyl)amino)benzoic acid] are greater than 10000 nM and 65 nM.
Turning to `Cc1cc([C@@H](C)Nc2ccccc2C(=O)O)c2nc(N3CC4CCC(C3)C4O)c(C)c(=O)n2c1` (stereo partly drawn) [Example 10-146, 2-(((1R)-1-(2-(8-hydroxy-3-azabicyclo[3.2.1]octan-3-yl)-3,7-dimethyl-4-oxo-4H-pyrido[1,2-a]pyrimidin-9-yl)ethyl)amino)benzoic acid], the results for the half-inhibitory concentration (IC50) in assay [1] and in assay [2] were greater than 10000 nM and 100 nM, respectively.
With `Cc1cc([C@@H](C)Nc2ccccc2C(=O)O)c2nc(N3CCCC(O)C3)c(C#N)c(=O)n2c1` (stereo partly drawn) [Example 11-324, 2-(((1R)-1-(3-cyano-2-(3-hydroxypiperidin-1-yl)-7-methyl-4-oxo-4H-pyrido[1,2-a]pyrimidin-9-yl)ethyl)amino)benzoic acid], the 50% inhibitory concentration (IC50) in assay [1] was greater than 10000 nM; in assay [2], 3820 nM.
With `Cc1cc([C@@H](C)Nc2ccccc2C(=O)O)c2nc(NC34CC(CO)(C3)C4)c(C#N)c(=O)n2c1` [Example 11-282, (R)-2-((1-(3-cyano-2-((3-(hydroxymethyl)bicyclo[1.1.1]pentan-1-yl)amino)-7-methyl-4-oxo-4H-pyrido[1,2-a]pyrimidin-9-yl)ethyl)amino)benzoic acid], the IC50 in assay [1] is greater than 10000 nM; in assay [2] it was 1650 nM.
